{
  "source": "paper PMC2666074",
  "about": "(Biochemistry, 2008)",
  "key": {"[1]": {"biological_target": "T1, S100A6 (Oryctolagus cuniculus, UniProt P30801)", "type": "binding, rabbit", "conditions": "25 °C, pH 7.0, 10 mM Ca^2+; for heat of binding in ITC: no affinity could be measured"}, "[2]": {"tested_on": "S100A6", "conditions": "cited from earlier work"}, "[3]": {"tested_on": "SCF-TBL1 E3 ligase", "conditions": "SGS domain mutant of SIP; cited from earlier work"}, "[4]": {"biological_target": "T1, S100A6", "assay": "NMR titration / chemical shift perturbation, SIP", "type": "binding, rabbit", "conditions": "30 °C"}},
  "note": "Ends that are not written are not given here. Peptide text beside a SMILES is read from it.",
  "data": [
    {"compound": "CC[C@H](C)[C@H](NC(=O)[C@H](CCCCN)NC(=O)[C@H](CCCCN)NC(=O)[C@H](CC(C)C)NC(=O)[C@@H](NC(=O)[C@H](CC(N)=O)NC(=O)[C@H](CCSC)NC(=O)[C@H](CC(C)C)NC(=O)CNC(=O)[C@H](CCC(=O)O)NC(=O)[C@H](CO)NC(=O)[C@H](CO)NC(=O)CNC(=O)[C@@H]1CCCN1C(=O)CN)C(C)C)C(=O)N[C@@H](Cc1ccc(O)cc1)C(=O)N[C@@H](CCC(=O)O)C(=O)N[C@@H](CC(=O)O)C(=O)NCC(=O)O", "note": "[SIP(189–203)] (H-GPGSSEGLMNVLKKIYEDG-OH)", "values": [
      {"measurement": "reduction of S100A6 binding affinity", "setting": "[1]; ITC, SIP fragment vs SIP(189–219)", "result": 4, "unit": "fold"}
    ]},
    {"compound": "SIP(203–219): SIP fragment for second putative helix (GDDDMKRTINKAWVESR; not fully specified)", "values": [
      {"measurement": "heat of binding in ITC", "setting": "[1]", "result": "did not produce any observable heat of binding"}
    ]},
    {"compound": "SIP L196A: full length SIP construct, substitution of Leu196 for Ala", "values": [
      {"measurement": "heat of binding in ITC", "setting": "[1]", "result": "did not produce detectable heat changes"}
    ]},
    {"compound": "isolated SGS domain fragment: intrinsically disordered SGS (Sgt1 specific) domain (E178-F229) (EKPSYDTEADPSEGLMNVLKKIYEDGDDDMKRTINKAWVESREKQAREDTEF; left off: His-tag, N-terminal, cleaved)", "values": [
      {"measurement": "Ca^2+ dependence of S100A6 binding", "setting": "[2]", "result": "strictly Ca^2+ dependent"},
      {"measurement": "S100A6 binding affinity, in words", "setting": "[1]; ITC, compared with full-length SIP / SIP-SGS", "result": "very similar S100A6 binding affinities"}
    ]},
    {"compound": "E217K: SGS domain mutant of SIP", "values": [
      {"measurement": "function of the E3 ligase, in words", "setting": "[3]", "result": "disrupt the function of the E3 ligase"}
    ]},
    {"compound": "CC[C@H](C)[C@H](NC(=O)[C@H](CCCCN)NC(=O)[C@H](CCCCN)NC(=O)[C@H](CC(C)C)NC(=O)[C@@H](NC(=O)[C@H](CC(N)=O)NC(=O)[C@H](CCSC)NC(=O)[C@H](CC(C)C)NC(=O)CNC(=O)[C@H](CCC(=O)O)NC(=O)[C@H](CO)NC(=O)[C@H](CO)NC(=O)CNC(=O)[C@@H]1CCCN1C(=O)CN)C(C)C)C(=O)N[C@@H](Cc1ccc(O)cc1)C(=O)N[C@@H](CCC(=O)O)C(=O)N[C@@H](CC(=O)O)C(=O)NCC(=O)N[C@@H](CC(=O)O)C(=O)N[C@@H](CC(=O)O)C(=O)N[C@@H](CC(=O)O)C(=O)N[C@@H](CCSC)C(=O)N[C@@H](CCCCN)C(=O)N[C@@H](CCCNC(=N)N)C(=O)N[C@H](C(=O)N[C@H](C(=O)N[C@@H](CC(N)=O)C(=O)N[C@@H](CCCCN)C(=O)N[C@@H](C)C(=O)N[C@@H](Cc1c[nH]c2ccccc12)C(=O)N[C@H](C(=O)N[C@@H](CCC(=O)O)C(=O)N[C@@H](CO)C(=O)N[C@@H](CCCNC(=N)N)C(=O)O)C(C)C)[C@@H](C)CC)[C@@H](C)O", "note": "[SIP(189–219)] (H-GPGSSEGLMNVLKKIYEDGDDDMKRTINKAWVESR-OH)", "values": [
      {"measurement": "exchange regime of the interaction (NMR titration)", "setting": "[4]; 15N-1H HSQC, pH 6.5, 10 mM Ca^2+", "result": "intermediate-fast exchange regime"},
      {"measurement": "binding stoichiometry by NMR", "setting": "[4]; 15N-labeled S100A6 0.1 mM, 50 mM Tris pH 6.5, 10 mM Ca^2+", "result": "two SIP molecules are symmetrically bound to the S100A6 dimer"}
    ]}
  ]
}
